Legend:
MCF-7 cells = test: Cytotoxicity test (MTT cell viability); format: cell-based, human; conditions: 0 to 100 µM, 24 hours incubation plus 48 hours growth
Procedure: (§1) The human MCF-7 breast adenocarcinoma and murine MC3T3-E1 embryonic fibroblast cell lines were growth in RPMI 1640 and DMEM medium, respectively, supplemented with 10% heated inactivated foetal bovine serum (FBS), 1% L-glutamine, 1% penicillin-streptomycin-amphotericin B mixture. All cells were maintained at 37 °C in humidified 5% CO2 atmosphere and splitted every 2-3 day.
(§2) MCF-7 and MC3T3-E1 cells were plated in 96-well flat bottomed microassay plates (1 × 10^4 cells/well) and grown for 24 hours. After complete adhesion, (arginyl)7-maltotriosyl-N-acetyl-amino-dodecanoic acid or 2 kDa polyethylenimine (PEI) as control were added to the culture media at increasing concentrations: from 0 to 100 µM. The cells were incubated for 24 hours at 37°C and then the medium was discarded by aspiration and replaced with 200 µl of fresh medium. The cells were grown for further 48 hours. Twenty microliters of 5 mg/mL of 3-(4,5-dimethylthiazol-2-yl)-2,5-diphenyltetrazolium bromide (MTT) in D-PBS were added to each well. […] The plates were gently shaken for 30 min and absorbance was measured at 570 nm with a reference wavelength of 630 nm. The cell viability was expressed as a percent viability of treated cells against untreated cells used as control. […]

MC3T3-E1 cells = test: Cytotoxicity test (MTT cell viability); format: cell-based, murine; conditions: 0 to 100 µM, 24 hours incubation plus 48 hours growth
Procedure: as §1, §2

(arginyl)7-maltotriosyl-N-acetyl-amino-dodecanoic acid
IC50 (MCF-7 cells): > 100 µM | IC50 (MC3T3-E1 cells): > 100 µM
